# Source: patent EP4596574A1, “GLP-1/GCG/GIP TRIPLE-RECEPTOR AGONIST AND USE THEREOF” (Sunshine Lake Pharma Co., Ltd., priority 2022, dated 2024)
# Entries after “also recorded” stand apart in the source; their conditions may differ. Marks after values point to notes of the source that are not given here.
# Columns and labels:
# [1] = Long-term repeated administration in diet-induced obese C57BL/6 mice (DIO); assay type: in vivo, C57/BL6 mice
# GCGR = target: T1, GCGR (Homo sapiens, UniProt P47871); experiment: In vitro cell activity, cAMP production in HEK293 cells expressing GCGR; assay type: cell-based
# T1 construct: expressed in transfected cells; host or cells: HEK293 (HEK293-GCGR)
# T1 sequence (P47871 26-477, species assumed): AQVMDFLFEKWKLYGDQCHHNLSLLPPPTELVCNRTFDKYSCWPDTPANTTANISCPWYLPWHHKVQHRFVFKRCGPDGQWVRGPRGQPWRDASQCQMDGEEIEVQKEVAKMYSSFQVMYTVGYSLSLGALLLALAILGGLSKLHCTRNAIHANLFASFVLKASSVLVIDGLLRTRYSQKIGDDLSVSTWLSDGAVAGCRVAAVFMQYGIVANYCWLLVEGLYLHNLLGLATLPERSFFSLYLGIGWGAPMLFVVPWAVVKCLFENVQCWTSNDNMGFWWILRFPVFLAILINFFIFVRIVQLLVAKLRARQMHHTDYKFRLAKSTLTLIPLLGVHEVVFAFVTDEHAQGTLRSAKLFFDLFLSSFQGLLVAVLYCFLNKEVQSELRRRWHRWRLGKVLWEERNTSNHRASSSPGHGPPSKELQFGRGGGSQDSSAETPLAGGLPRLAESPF
# In short: (§1)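 cAMP output read as 665/620 nm HTRF ratio after adding cAMP-d2 plus anti-cAMP cryptate and incubating 1 h at room temperature in the dark or overnight at 4 °C. Cells: HEK293 expressing human GLP-1R or GCGR, plated from a 4×10^5 cells/mL suspension. Four-parameter fit gives EC50.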
# GLP-1R = target: T2, GLP-1R (Homo sapiens, UniProt P43220); experiment: In vitro cell activity, cAMP production in HEK293 cells expressing GLP-1R; assay type: cell-based
# T2 construct: expressed in transfected cells; host or cells: HEK293 (HEK293-GLP-1R)
# T2 sequence (P43220 24-463, species assumed): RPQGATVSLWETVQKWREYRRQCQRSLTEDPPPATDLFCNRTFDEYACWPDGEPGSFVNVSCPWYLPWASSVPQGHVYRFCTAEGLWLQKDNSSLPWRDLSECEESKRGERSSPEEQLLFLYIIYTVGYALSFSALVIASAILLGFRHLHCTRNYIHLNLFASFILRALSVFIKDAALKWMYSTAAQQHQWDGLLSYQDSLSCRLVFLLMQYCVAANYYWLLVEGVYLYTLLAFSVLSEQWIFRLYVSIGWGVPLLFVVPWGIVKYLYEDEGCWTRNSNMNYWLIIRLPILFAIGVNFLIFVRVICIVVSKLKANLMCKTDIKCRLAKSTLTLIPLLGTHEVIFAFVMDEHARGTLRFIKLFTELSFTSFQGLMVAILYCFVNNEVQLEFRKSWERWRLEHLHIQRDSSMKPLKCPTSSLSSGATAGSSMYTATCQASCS
# In short: as §1
# GIPR = target: T3, GIPR (Homo sapiens, UniProt P48546); experiment: In vitro cell activity, cAMP production in HEK293 cells expressing GIPR; assay type: cell-based
# T3 construct: expressed in transfected cells; host or cells: HEK293 (HEK293-GIPR)
# T3 sequence (P48546 22-466): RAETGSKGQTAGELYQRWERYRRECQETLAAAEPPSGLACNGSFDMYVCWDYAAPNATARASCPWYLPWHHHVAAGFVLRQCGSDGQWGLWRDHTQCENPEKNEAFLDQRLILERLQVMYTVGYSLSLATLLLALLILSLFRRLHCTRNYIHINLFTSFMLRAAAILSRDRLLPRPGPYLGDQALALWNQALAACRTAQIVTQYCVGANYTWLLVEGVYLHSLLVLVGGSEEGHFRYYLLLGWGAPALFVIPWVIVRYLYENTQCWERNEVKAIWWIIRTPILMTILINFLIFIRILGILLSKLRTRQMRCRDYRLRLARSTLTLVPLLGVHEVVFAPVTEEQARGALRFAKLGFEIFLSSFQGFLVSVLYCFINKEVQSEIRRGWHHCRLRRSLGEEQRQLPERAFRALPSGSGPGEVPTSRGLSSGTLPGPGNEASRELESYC
# In short: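 HEK293 cells expressing human GIPR, thawed and diluted to 4×10^5 cells/mL, are stimulated with test compound. cAMP is measured by HTRF competition between cAMP-d2 and anti-cAMP cryptate. EC50 comes from a four-parameter nonlinear fit of signal ratio against concentration.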
# [2] = In vivo efficacy evaluation in db/db mouse model (blood glucose); parameters: species or system db/db mice
# Experimental: Blood glucose was tested before each administration.
# [3] = 10 nmol/kg s.c. once every 3 days, D7
# [4] = 10 nmol/kg s.c. once every 3 days, D10
# [5] = 10 nmol/kg s.c. once every 3 days, D13
# [6] = 10 nmol/kg s.c. once every 3 days, D16
# [7] = 10 nmol/kg s.c. once every 3 days, D19
# [8] = 10 nmol/kg s.c. once every 3 days, D22
# [9] = 10 nmol/kg s.c. once every 3 days, D25
# [10] = 10 nmol/kg s.c. once every 3 days, D28
# [11] = after 4 weeks of administration
# [12] = after 4 weeks of administration, same dose
# [13] = long-term administration 10 nmol/kg, 72 h after the last administration
# [14] = long-term administration 10 nmol/kg, blood biochemical index
smiles,measurement,setting,value
CC[C@H](C)[C@H](NC(=O)[C@H](Cc1ccccc1)NC(=O)[C@H](C)NC(=O)[C@H](CCCNC(=N)N)NC(=O)[C@H](CCC(N)=O)NC(=O)[C@H](CCCNC(=N)N)NC(=O)[C@H](CCCCNC(=O)COCCOCCNC(=O)CC[C@H](NC(=O)CCCCCCCCCCCCCCCCCCC(=O)O)C(=O)O)NC(=O)[C@H](CCC(=O)O)NC(=O)[C@H](CC(=O)O)NC(=O)[C@H](CC(C)C)NC(=O)[C@H](CC(C)C)NC(=O)[C@@H](NC(=O)[C@H](CO)NC(=O)[C@H](Cc1ccc(O)cc1)NC(=O)[C@H](CC(=O)O)NC(=O)[C@H](CO)NC(=O)[C@@H](NC(=O)[C@](C)(Cc1ccccc1F)NC(=O)[C@@H](NC(=O)CNC(=O)[C@H](CCC(N)=O)NC(=O)C(C)(C)NC(=O)[C@@H](N)Cc1ccc(O)cc1)[C@@H](C)O)[C@@H](C)O)[C@@H](C)CC)C(=O)N[C@@H](CCC(=O)O)C(=O)N[C@@H](Cc1ccc(O)cc1)C(=O)N[C@@H](CC(C)C)C(=O)N[C@@H](CC(C)C)C(=O)N[C@@H](C)C(=O)NCC(=O)NCC(=O)N1CCC[C@H]1C(=O)N[C@@H](CO)C(=O)N[C@@H](CO)C(=O)NCC(=O)N[C@@H](C)C(=O)N1CCC[C@H]1C(=O)N1CCC[C@H]1C(=O)N1CCC[C@H]1C(=O)N[C@@H](CO)C(=O)O [HEC-PT86],Cumulative food intake (g/pcs) D7,[1]; [3],8.4 g/pcs
same,Weight gain rate (%) D7,[1]; [3],-17.8±5.8%
same,Cumulative food intake (g/pcs) D10,[1]; [4],11.6 g/pcs
same,Weight gain rate (%) D10,[1]; [4],-23.5±6.6%
same,Cumulative food intake (g/each) D13,[1]; [5],14.5 g/each
same,Weight gain rate (%) D13,[1]; [5],-26.1±7.2%
same,Cumulative food intake (g/each) D16,[1]; [6],19.3 g/each
same,Weight gain rate (%) D16,[1]; [6],-27.9±7.6%
same,Cumulative food intake (g/each) D19,[1]; [7],24.5 g/each
same,Weight gain rate (%) D19,[1]; [7],-29.2±8.1%
same,Cumulative food intake (g/each) D22,[1]; [8],30.4 g/each
same,Weight gain rate (%) D22,[1]; [8],-29.3±7.2%
same,Cumulative food intake (g/each) D25,[1]; [9],36.6 g/each
same,Weight gain rate (%) D25,[1]; [9],-30.6±7.0%
same,Cumulative food intake (g/each) D28,[1]; [10],43.4 g/each
same,Weight gain rate (%) D28,[1]; [10],-31.2±6.4%
same,Cumulative food intake (g/each) D30,"[1]; 10 nmol/kg s.c. once every 3 days, D30",47.0^a g/each
same,Weight gain rate (%) D31,"[1]; 10 nmol/kg s.c. once every 3 days, D31",-30.9±6.4^a %
same,Cumulative food intake (g/pcs) D0,"[1]; 10 nmol/kg s.c., D0",2.5 g/pcs
same,Weight gain rate (%) D0,"[1]; 10 nmol/kg s.c., D0",0.0±0.0%
same,Cumulative food intake (g/pcs) D1,"[1]; 10 nmol/kg s.c., D1",2.9 g/pcs
same,Weight gain rate (%) D1,"[1]; 10 nmol/kg s.c., D1",-6.0±0.8%
same,Cumulative food intake (g/pcs) D2,"[1]; 10 nmol/kg s.c., D2",3.5 g/pcs
same,Weight gain rate (%) D2,"[1]; 10 nmol/kg s.c., D2",-8.8±1.4%
same,Cumulative food intake (g/pcs) D3,"[1]; 10 nmol/kg s.c., D3",4.5 g/pcs
same,Weight gain rate (%) D3,"[1]; 10 nmol/kg s.c., D3",-9.9±1.6%
same,Cumulative food intake (g/pcs) D4,"[1]; 10 nmol/kg s.c., D4",5.8 g/pcs
same,Weight gain rate (%) D4,"[1]; 10 nmol/kg s.c., D4",-10.6±2.9%
same,liver function and blood lipids of DIO mice,[1]; [11],significantly improved the liver function and blood lipids
same,weight loss and food intake inhibition effects compared with Semaglutide,[1]; [11],superior to the positive drug Semaglutide
same,food intake inhibition effect compared with LY3298176,[1]; [12],comparable to those of the same dose of the positive drug LY3298176
same,weight loss effect compared with LY3298176,[1]; [12],comparable to those of the same dose of the positive drug LY3298176
same,Liver index/%,[1]; [13],2.7±0.0^a %
same,Liver/g,[1]; [13],0.9±0.1^a g
same,Weight/g,[1]; [13],32.3±4.4^a g
same,ALT (U/L),[1]; [14],27.8±9.4^a U/L
same,AST (U/L),[1]; [14],108.6±26.3^a U/L
same,CHOL (mmol/L),[1]; [14],3.5±0.7^a mmol/L
same,TRIGL (mmol/L),[1]; [14],0.6±0.1^a mmol/L
same,EC50,GCGR,0.806 nM
same,EC50,GLP-1R,0.158 nM
same,EC50,GIPR,0.113 nM
same,blood glucose after administration,"[2]; db/db mice, 10 nmol/kg",significantly reduce blood glucose
same,Random blood glucose (mM) D0,"[2]; db/db mice, 10 nmol/kg s.c. once every three days, D0 (before first dose)",27.3 ± 3.6 mM
same,Random blood glucose (mM) D3,"[2]; db/db mice, 10 nmol/kg s.c. once every three days, D3",9.2 ± 5.6 mM
same,Random blood glucose (mM) D4,"[2]; db/db mice, 10 nmol/kg s.c. once every three days, D4",16.2 ± 6.5 mM
same,Random blood glucose (mM) D5,"[2]; db/db mice, 10 nmol/kg s.c. once every three days, D5",18.8 ± 5.7 mM
same,Random blood glucose (mM) D6,"[2]; db/db mice, 10 nmol/kg s.c. once every three days, D6",23.0 ± 3.7 mM
same,Random blood glucose (mM) D7,"[2]; db/db mice, 10 nmol/kg s.c. once every three days, D7",21.0 ± 4.4 mM
same,Random blood glucose (mM) D10,"[2]; db/db mice, 10 nmol/kg s.c. once every three days, D10",9.1 ± 2.3 mM
same,Random blood glucose (mM) D13,"[2]; db/db mice, 10 nmol/kg s.c. once every three days, D13",9.6 ± 3.2 mM
same,Random blood glucose (mM) D16,"[2]; db/db mice, 10 nmol/kg s.c. once every three days, D16",8.4 ± 1.7 mM
same,Random blood glucose (mM) D19,"[2]; db/db mice, 10 nmol/kg s.c. once every three days, D19",12.0 ± 3.3 mM
same,Random blood glucose (mM) D22,"[2]; db/db mice, 10 nmol/kg s.c. once every three days, D22",11.6 ± 3.8 mM
same,Random blood glucose (mM) D25,"[2]; db/db mice, 10 nmol/kg s.c. once every three days, D25",13.1±3.3^a mM
same,Random blood glucose (mM) 6 h,"[2]; db/db mice, 10 nmol/kg s.c., 6 h",15.4 ± 4.4 mM
same,Random blood glucose (mM) 24 h,"[2]; db/db mice, 10 nmol/kg s.c., 24 h",6.5 ± 1.4 mM
same,Random blood glucose (mM) 48 h,"[2]; db/db mice, 10 nmol/kg s.c., 48 h",7.9 ± 2.8 mM
same,time at which blood glucose levels reached the lowest level,"[2]; db/db mice, 10 nmol/kg, after administration",about 24 hours
same,blood glucose lowering after long-term administration compared with LY3298176,"[2]; db/db mice, long-term repeated administration",better than that of the LY3298176 group; also recorded: better hypoglycemic effect than LY3298176
same,blood glucose reducing effect after administration compared with LY3298176,"[2]; db/db mice, same dose 10 nmol/kg",slightly better than the positive control LY3298176
same,blood glucose level after long-term administration,[2]; type II diabetes model db/db mice,significantly improve the blood glucose level
